The values that follow come from patent US11229680B2, “Autophagy inhibitors” (The Hong Kong University of Science and Technology, priority 2017, dated 2022).

The subject of one test is GABARAP. Put plainly: ITC binding to GABARAP. The arrangement: species or system human.
Test [1] concerns p62-positive puncta in COS7 cells. The experiment in a line: p62-positive puncta in starved COS7 cells. In kind it is cell-based. The settings on record: starvation; for p62-positive puncta versus mCherry vector control: COS7 cells expressing mCherry-tagged peptide. An excerpt: We further quantified the level of p62, one of the best studied selective autophagy substrates, to monitor the autophagic flux in COS7 cells expressing various AnkB/G LIR peptides under the starvation condition (Klionsky et al., 2016; Mizushima et al., 2010). Upon autophagy induction, p62 forms aggregates via its LIR motif-mediated interactions to Atg8s and subsequent incorporation into autophagosomes (Bjorkoy et al., 2005; Pankiv et al., 2007). Only a relatively low and steady level of p62 aggregates is formed if autophagy flux is normal (i.e. p62-positive autophagosomes are steadily cleared by fusing with lysosomes; (Bjorkoy et al., 2005)), and this is indeed the case when cells were expressed with the mCherry vector control (FIG. 7F). […] This is consistent with a previous siRNA-based study showing that knockdown of LC3 but not GABARAP causes p62 accumulation in COS7 cells (Maruyama et al., 2014). Taken together, the above cell-based assays reinforce our earlier conclusion derived from biochemical and structural studies, that the AnkB WT peptide can function as potent autophagy inhibitor by targeting all members of the Atg8 family and the AnkG WT or ER peptides can selectively target the GABARAPs and spare the LC3s.

The test system of a further test is SQST-1::GFP. Put plainly: SQST-1::GFP aggregate accumulation in C. elegans expressing the peptides. It is filed as in vivo. An excerpt: We next determined whether the AnkB WT peptide blocks autophagy in C. elegans. Autophagy is required for degradation of a variety of protein substrates, including the C. elegans p62 homolog SQST-1 during development (Tian et al., 2010). In the wild type animals, SQST-1::GFP is weakly expressed and diffusely localized in the cytoplasm, while numerous SQST-1 aggregates accumulate in autophagy mutants (Tian et al., 2010). The AnkB WT peptide fused with the Cherry reporter (Cherry::AnkB WT) or Cherry::AnkB WR was expressed under the control of the nfya-1 promoter, which is expressed ubiquitously from the embryonic to adult stages. The expression plasmids were injected into animals carrying integrated SQST-1::GFP reporter (bpIs151) and transgenic lines were obtained and analyzed.
Similarly, we also tested the blocking effect of AnkG peptides in C. elegans. […] This observation is somewhat different from that in mammalian heterologous cells. This may be explained by the different roles of the two families in different organisms. In mammal, p62 degradation is dependent on LC3 but not GABARAP (Maruyama et al., 2014), so blocking GABARAP binding has minimal effect on p62 degradation. However, in C. elegans, LGG-1 acts upstream to LGG-2 (Manil-Segalen et al., 2014; Wu et al., 2015), so blocking either of them will lead to defect in SQST-1 degradation.
Although a large collection of autophagy mutants were isolated from genetic screens (Tian et al., 2010), assays to inhibit autophagy activity in a spatiotemporal manner are not available. We investigated whether the AnkB peptide can block autophagy in a tissue- and temporal-specific manner. The AnkB peptide was expressed under the control of tissue-specific promoters, including the promoter of myo-3 for body wall muscle cells, y37A1B.5 for hypodermal cells and vha-6 for intestinal cells. The expression constructs were injected into animals carrying the corresponding tissue-specific SQST-1::GFP expression integrated lines.
We also examined whether the AnkB peptide can impair autophagy in a temporal control manner. The expression of AnkB WT was driven by the promoter of col-19, which is expressed in hypodermal cells from the young adult stage onwards.

The target in test [2] is LC3s (LC3A, LC3B, LC3C). Put plainly: ITC binding to LC3s. The arrangement: species or system human. The settings on record: LC3A, LC3B, LC3C.
Test [3] deals with LC3s (LC3A, LC3B, LC3C) (Homo sapiens). Put plainly: ITC binding to LC3s.
For test [4], the system named is GABARAP-positive puncta in COS7 cells. Put plainly: GABARAP-positive puncta in starved COS7 cells. It is filed as cell-based. The settings on record: COS7 cells over-expressing mCherry-tagged peptide, nutrients deprivation. An excerpt: (§1) We used the well-established cultured COS7 cells for assessing autophagy inhibitions by the AnkB/G LIR peptides over-expressed in the cells. We quantified the numbers of endogenous LC3- or GABARAP-positive puncta, which represent LC3 or GABARAP-containing autophagic structures, as readouts to quantify autophagy inhibitions (Klionsky et al., 2016; Mizushima et al., 2010). After nutrients deprivation, obvious accumulations of LC3- or GABARAP-positive puncta could be observed in cells over-expressing mCherry only, indicating induction of autophagy by starvation (FIG. 6C6&E6). […] In contrast, expression of the mCherry-AnkB WR peptide had no impact on the LC3- or GABARAP-puncta numbers (i.e. with the same puncta numbers as expressing the mCherry vector control; FIG. 6C-F).

Another test concerns the target T1, LGG-2 (Caenorhabditis elegans, UniProt Q23536).
T1 sequence (Q23536 1-130): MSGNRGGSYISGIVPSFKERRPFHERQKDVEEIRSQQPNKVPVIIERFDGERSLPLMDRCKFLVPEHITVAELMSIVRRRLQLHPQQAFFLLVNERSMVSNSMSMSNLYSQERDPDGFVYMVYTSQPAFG
The experiment in a line: ITC binding to purified LGG-2. The arrangement: species or system C. elegans. An excerpt: (§2) C. elegans provides an ideal platform to study autophagy and especially to investigate roles of different members of Atg8 in autophagy, because worms contain both GABARAP and LC3 subfamily Atg8s and yet simple enough with one gene for each subfamily (worm lgg-1 and lgg-2 are […] of GABARAP and LC3, respectively). It has also been shown earlier on that lgg-1 and lgg-2 act non-redundantly in autophagy (Wu et al., 2015). Prior to performing autophagy assays in worms, we measured the bindings of various AnkB/G LIR peptides to purified LGG-1 and LGG-2 using the same method as we have described for FIGS. 1&3.

For test [5], the system named is LC3-positive puncta in COS7 cells. The experiment in a line: LC3-positive puncta in starved COS7 cells. In kind it is cell-based. The conditions noted are these: COS7 cells over-expressing mCherry-tagged peptide, nutrients deprivation.
Source text: as §1

The next test has as its target LGG-1 (Caenorhabditis elegans, UniProt Q09490). Put plainly: ITC binding to purified LGG-1. The arrangement: species or system C. elegans.
Source text: as §2

The test system of test [6] is LC3s (LC3A, LC3B, LC3C). The conditions noted are these: recently identified LC3 binding sequence (Cheng et al., 2016; Olsvik et al., 2015); cited from earlier work.
Where [7] appears, read: mCherry::AnkG peptides, embryonic stage (FIG. 10B-D).

Values joined by “and” are separate entries in the source; they are usually repeats but may differ in a detail not shown here. Equal values may be shown once.

Chain of LGG-1 (Q09490 1-116 limits assumed): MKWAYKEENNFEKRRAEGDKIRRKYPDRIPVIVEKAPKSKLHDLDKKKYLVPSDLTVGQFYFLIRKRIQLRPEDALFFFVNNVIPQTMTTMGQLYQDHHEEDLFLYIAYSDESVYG

Consider `CC[C@H](C)[C@H](NC(=O)[C@H](CCC(=O)O)NC(=O)[C@H](CCC(=O)O)NC(=O)[C@H](CO)NC(=O)[C@H](CO)NC(=O)[C@H](Cc1ccccc1)NC(=O)[C@H](CCC(=O)O)NC(=O)[C@@H](NC(=O)[C@H](Cc1c[nH]c2ccccc12)NC(=O)[C@H](CC(=O)O)NC(=O)[C@H](CC(=O)O)NC(=O)[C@H](CCC(=O)O)NC(=O)[C@@H]1CCCN1)[C@@H](C)O)C(=O)N[C@@H](CCCNC(=N)N)C(=O)N[C@@H](CCC(=O)O)C(=O)N[C@@H](C)C(=O)N[C@@H](CCCNC(=N)N)C(=O)N[C@@H](CCC(N)=O)C(=O)N[C@@H](C)C(=O)N[C@@H](C)C(=O)N[C@@H](C)C(=O)N[C@@H](CO)C(=O)N[C@@H](Cc1c[nH]cn1)C(=O)N[C@@H](C)C(=O)N1CCC[C@H]1C(=O)N[C@@H](CO)C(=O)O` [AnkG LIR], for which the “binding to GABARAP stronger than almost all reported bindings between LIR motifs and Atg8s” value in the test on GABARAP (ITC) is listed as roughly 1000 fold. Moreover, on GABARAP (isothermal titration calorimetry (ITC)), the Kd is ~2.6 nM and 2.6 nM. The “p62-positive puncta versus mCherry vector control” value in [1] was “obviously increased”. Besides, the “p62 puncta increase compared with AnkB WT peptide” value in [1] (COS7 cells) is reported as “significantly lower”. In addition, the “SQST-1::GFP aggregates” value in the test with SQST-1::GFP (Cherry fusion, hyp7 promoter, epidermis, embryonic to adult stages) was “caused accumulation of SQST-1::GFP aggregates”; in the test on SQST-1::GFP (Phyp7::mCherry::AnkG peptides, hypodermis, L4 larvae), “a large number of SQST-1::GFP aggregates accumulate”; in the test on SQST-1::GFP (setting [7]) it was “accumulation of the SQST-1::GFP aggregates”. The “Kd values of binding to the LC3s” value on LC3s (LC3A, LC3B, LC3C) [2] was “hundreds to thousands”. For the same molecule, in [3], the “binding to LC3 (in words)” value is “much weaker affinity than to GABARAPs”. In [4], the GABARAP-positive puncta number entry is on record as “potently inhibited”. The “weaker affinity towards LGG-2 than LGG-1” value on LGG-2 is given as “about 130 fold”. Moreover, the LC3-positive puncta number entry in test [5] is “only modestly reduced”. Further, the “binding to LGG-1 (in words)” value at LGG-1 is reported as “binds strongly”.

As for “AnkG W1989R: AnkG LIR with Trp1989 substituted by Arg; negative and specificity control (PEDDRTEFSSEEIREARQAAASHAPS; AnkG W1989R rat recombinant peptide, prepared in the lab)”, in the test with GABARAP (ITC), the “binding to GABARAP (in words)” value is reported as “dramatic weakening”. For the same molecule, the “p62-positive puncta versus mCherry vector control” value in test [1] is “neither of the AnkB/G WR peptides could induce p62-positive puncta increase”. Besides, the “SQST-1::GFP aggregates” value in the test with SQST-1::GFP (setting [7]) is on record as “no SQST-1::GFP aggregates”. Moreover, in test [3], the “binding to LC3 (in words)” value was “dramatic weakening”. Also, the GABARAP-positive puncta number entry in [4] is given as “did not see any noticeable changes”. In test [5], the LC3-positive puncta number entry is “did not see any noticeable changes”.

Turning to “FYCO1 LIR: recently identified LC3 binding sequence from FYCO1 with a one-turn helix extension (DDAVFDIITDEELCQIQESGSSLPET; FYCO1 recombinant human sequence, prepared in lab)”, the “binding to LC3 compared with bindings of AnkB LIR to Atg8” value in the test with LC3s (LC3A, LC3B, LC3C) [6] was “significantly weaker”.

As usually defined, the Kd is a measure of binding affinity in units of concentration. Lower therefore signals a tighter complex.
